Entries after “also recorded” stand apart in the source; their conditions may differ.
What was measured:
[1] = Conditioned taste aversion testing; type: in vivo, adult female Wistar rats; settings: ip injection on test days 1-3; spexin 70 μg/kg, LiCl 63.5 mg/kg body weight (FIG. 29)
Method: After 20 hrs of water deprivation, rats were offered a single bottle containing 0.1% sodium saccharin for 20 min, followed by an ip injection of physiological saline (n=6), 70 μg spexin/kg body weight (n=6), or 63.5 mg LiCl/kg body weight (0.15M LiCl) (n=5) after an additional 20 min. Injections were administered on test days 1-3, with no injection on the final test day. […] Data points represent mean±SEM.
Conditioned taste aversion studies were conducted using adult female Wistar rats according to established protocols [P27-P29]. For training, rats were water but not food deprived for 20 hrs (1800-1400 hrs the following day), then offered a single bottle of water ad libitum for 20 min. Training sessions took place on 2 days of each week, spaced at 3-4 day intervals, to allow recovery of normal food intake and body weight. A total of 7 training sessions were conducted, by which time all animals had learned to drink promptly when fluid was offered. Testing was initiated on the same schedule, with 0.1% sodium saccharin rather than water as the available liquid. On test days 1-3 groups of rats were injected ip with either physiological saline, spexin (70 μg/kg body weight), or LiCl (63.5 mg/kg body weight). All groups experienced their first saccharin exposure and injection on test day 1. […]

[2] = Body weight and 24 hour feeding behavior in DIO rats (BioDaq Food Intake Monitoring System); type: in vivo; settings: DIO rats on treatment
Method: Obese adult female Wistar rats (n=4/group) received single daily injections (sc) of vehicle or Spexin (35 μg/kg BW). Body weights and food intake were measured daily. Average daily food intake (FIG. 22A) and body weight (FIG. 22B) for each group was recorded for each 24 hr period. 24 hr food intake was reduced in the Spexin treated animals (dark circles) by Day 3. […] This effect persisted well beyond the immediate treatment period, and was apparent out to Day 7.
A more detailed analysis of hourly feeding behaviors, including 1) number of “meals” during a 24 hr light/dark cycle, and 2) meal duration and incidence were continuously recorded by a BioDaq Food Intake Monitoring System (FIG. 23). Pre-treatment baselines (FIG. 23A), on-treatment responses (FIG. 23B), early (FIG. 23C) and late (FIG. 23D) “wash-out” periods are presented. […]
Obese (DIO) adult female Wistar rats (n=4/group) received single daily injections (sc) of vehicle or Spexin (35 μg/kg BW). Individual body weights and food intake were measured and recorded daily, and the average food intake and body weight for each group was recorded for each 24 hour period. For a more detailed analysis of hourly feeding behaviors, number of feeding events or “meals” during a 24 hour light/dark cycle, and frequency and durations of individual meals were continuously recorded via a BioDaq Food Intake Monitoring System (New Brunswick, N.J.).

| SMILES | total amount of 0.1% saccharin solution consumed vs saline [1] | toxicity, nausea or taste aversion behaviors [2] | toxicity, nausea or taste aversion behaviors ([2]; listed as spexin) |
| --- | --- | --- | --- |
| CSCC[C@H](NC(=O)[C@H](C)NC(=O)[C@H](CCC(N)=O)NC(=O)[C@@H]1CCCN1C(=O)[C@@H](NC(=O)[C@H](Cc1c[nH]c2ccccc12)NC(=O)[C@@H](N)CC(N)=O)[C@@H](C)O)C(=O)N[C@@H](CC(C)C)C(=O)N[C@@H](Cc1ccc(O)cc1)C(=O)N[C@@H](CC(C)C)C(=O)N[C@@H](CCCCN)C(=O)NCC(=O)N[C@@H](C)C(=O)N[C@@H](CCC(N)=O)C(N)=O [Spexin, NWTPQAMLYLKGAQ-amide] | No significant differences; also recorded: no signs of taste aversion were detected | No indications of nausea or taste aversion behaviors; also recorded: No overt signs of Spexin-induced toxic effects | did not exhibit overt toxicity or nausea |
| [Cl-].[Li+] [LiCl, reference compound] | significantly less | – | – |

From patent US10912816B2, “Obesity-related genes and their proteins and uses thereof” (THE TRUSTEES OF COLUMBIA UNIVERSITY IN THE CITY OF NEW YORK, priority 2010, dated 2021)
